# Activity calls are given as the source filed them. The calls are words filed in the database; no cut-off is given here.
# What was measured:
# WM 266-4 = experiment: Anti-migratory activity against human WM266.4 cells at 1 to 1000 nM after 30 hrs by scratch-wound assay; format: functional, cell-based
# [1] = Drug uptake in NCr nude mouse tumor xenografted with human SKOV3 cells at 20 mg/kg, po qd measured after 33 days; format: ADME, organism-based, Neoplasm; details: read-out: Drug uptake
# SK-OV-3 = experiment: cells; details: Homo sapiens, SK-OV-3, 96 h, read-out: pGI50 (converted)
# Description: Antiproliferative activity against human SKOV3 cells after 96 hrs by CellTiter Blue assay
smiles,measurement,setting,value
Cc1ccc(NC(=O)c2cccc3c2OCCO3)cc1NC(=O)c1ccc2nc(OCCN3CCCC3)ccc2c1,Activity,WM 266-4,inactive
Cc1ccc(NC(=O)c2ccc3c(c2)OCCO3)cc1NC(=O)c1ccc2nc(OCCN3CCCC3)ccc2c1,concentration at […],[1],940 nM
Cc1ccc(NC(=O)c2ccc3c(c2)OCCO3)cc1NC(=O)c1ccc2nc(OCCN3CCCCC3)ccc2c1,GI50,SK-OV-3,1.07 nM

# — ChEMBL document CHEMBL4000193, “Discovery of a Chemical Probe Bisamide (CCT251236): An Orally Bioavailable Efficacious Pirin Ligand from a Heat Shock Transcription Factor 1 (HSF1) Phenotypic Screen” (J Med Chem, 2017)
